The text below walks through data of ChEMBL document CHEMBL4184318, “Identification of Fast-Acting 2,6-Disubstituted Imidazopyridines That Are Efficacious in the in Vivo Humanized Plasmodium falciparum NODscidIL2Rγ null Mouse Model of Malaria” (J Med Chem, 2018).

By AUC(0-t) is commonly meant the area under the concentration-time curve up to a stated or last time point. High values mean high exposure, low ones low exposure. As a reminder, the Cmax is the maximum level reached in the sampled fluid or tissue. What is called Tmax is the time at which the peak concentration occurs. The term bioavailability denotes dose-corrected exposure relative to a reference, in per cent. A higher bioavailability goes with good availability. What is called Vd is a proportionality between amount in the body and measured concentration, not a real space. Higher therefore signals extensive tissue distribution.

Series [1] concerns Mus musculus. Briefly: Dose normalized Cmax in NOD-scid IL-2Rgamma-null mouse model engrafted with Plasmodium falciparum 3D7 infected human erythrocytes at 25 mg/kg administered via oral gavage measured over 23 hrs post first dose by LC-MS/MS method. The series is classed as ADME, organism-based. Particulars: in vivo.
Series [2] is described as follows: AUC (0 to 23 hrs) in NOD-scid IL-2Rgamma-null mouse model engrafted with Plasmodium falciparum 3D7 infected human erythrocytes at 10 mg/kg administered via oral gavage by LC-MS/MS method. The series is classed as ADME, organism-based. On the set-up: dose 10 mg/kg, time < 23 hr, route oral. Particulars: in vivo.
Series [3] deals with Rattus norvegicus. Briefly: Dose normalized AUC (0 to infinity) in Sprague-Dawley rat at 15 mg/kg administered via oral gavage as bolus dose by LC-MS/MS method. It is filed as ADME, organism-based. Conditions: in vivo.
Series [4] is described as follows: Cmax in NOD-scid IL-2Rgamma-null mouse model engrafted with Plasmodium falciparum 3D7 infected human erythrocytes at 50 mg/kg administered via oral gavage measured over 23 hrs post first dose by LC-MS/MS method. Conditions: in vivo. On the set-up: dose 50 mg/kg, route oral. The series is classed as ADME, organism-based.
Series [5] concerns Mus musculus. The experiment in a line: Dose normalized AUC (0 to 23 hrs) in NOD-scid IL-2Rgamma-null mouse model engrafted with Plasmodium falciparum 3D7 infected human erythrocytes at 10 mg/kg administered via oral gavage by LC-MS/MS method. Particulars: in vivo. The series is classed as ADME, organism-based.
Series [6] can be described thus: Tmax in NOD-scid IL-2Rgamma-null mouse model engrafted with Plasmodium falciparum 3D7 infected human erythrocytes at 25 mg/kg administered via oral gavage measured over 23 hrs post first dose by LC-MS/MS method. The series is classed as ADME, organism-based. Particulars: in vivo.
Series [7] concerns Mus musculus. Briefly: Dose normalized Cmax in NOD-scid IL-2Rgamma-null mouse model engrafted with Plasmodium falciparum 3D7 infected human erythrocytes at 50 mg/kg administered via oral gavage measured over 23 hrs post first dose by LC-MS/MS method. It is filed as ADME, organism-based. Particulars: in vivo.
In series [8] the test system is Mus musculus. The experiment in a line: Dose normalized AUC (0 to 23 hrs) in NOD-scid IL-2Rgamma-null mouse model engrafted with Plasmodium falciparum 3D7 infected human erythrocytes at 5 mg/kg administered via oral gavage by LC-MS/MS method. It is filed as ADME, organism-based. Conditions: in vivo.
The nature of series [9]: Cmax in BALB/c mouse at 5 mg/kg, iv administered as 2 mins of infusion by LC-MS/MS method. Set-up: dose 5 mg/kg, route intravenous. Particulars: in vivo. It is filed as ADME, organism-based.
Series [10] deals with Rattus norvegicus. Briefly: Dose normalized AUC (0 to infinity) in Sprague-Dawley rat at 3 mg/kg, iv administered as 2 mins of infusion by LC-MS/MS method. It is filed as ADME, organism-based. Conditions: in vivo.
Series [11] can be described thus: Tmax in NOD-scid IL-2Rgamma-null mouse model engrafted with Plasmodium falciparum 3D7 infected human erythrocytes at 10 mg/kg administered via oral gavage measured over 23 hrs post first dose by LC-MS/MS method. The series is classed as ADME, organism-based. Particulars: in vivo.
Series [12] relates to Mus musculus. Briefly: Dose normalized Cmax in NOD-scid IL-2Rgamma-null mouse model engrafted with Plasmodium falciparum 3D7 infected human erythrocytes at 10 mg/kg administered via oral gavage measured over 23 hrs post first dose by LC-MS/MS method. It is filed as ADME, organism-based. Conditions: in vivo.
Series [13] has as its system Mus musculus. The experiment in a line: Dose normalized AUC (0 to 23 hrs) in NOD-scid IL-2Rgamma-null mouse model engrafted with Plasmodium falciparum 3D7 infected human erythrocytes at 25 mg/kg via oral gavage by LC-MS/MS method. Conditions: in vivo. It is filed as ADME, organism-based.
Series [14] is described as follows: Kinetic solubility of the compound in phosphate buffered saline at pH 6.5 after 20 hrs by shake flask method. The series is classed as physicochemical. Particulars: read-out: Kinetic_solubility.
Series [15] in a line: AUC (0 to 23 hrs) in NOD-scid IL-2Rgamma-null mouse model engrafted with Plasmodium falciparum 3D7 infected human erythrocytes at 25 mg/kg administered via oral gavage by LC-MS/MS method. The series is classed as ADME, organism-based. Set-up: time < 23 hr, dose 25 mg/kg, route oral. Particulars: in vivo.
Series [16] in a line: Oral bioavailability in Sprague-Dawley rat at 15 mg/kg administered via gavage as bolus dose by LC-MS/MS method. The series is classed as ADME, organism-based. Particulars: in vivo.
Series [17] in a line: Kinetic solubility of the compound in FaSSIF at pH 6.5 after 20 hrs by shake flask method. It is filed as physicochemical. Particulars: read-out: Kinetic_solubility.
A short description of series [18]: AUC (0 to 23 hrs) in NOD-scid IL-2Rgamma-null mouse model engrafted with Plasmodium falciparum 3D7 infected human erythrocytes at 50 mg/kg administered via oral gavage by LC-MS/MS method. The series is classed as ADME, organism-based. Set-up: dose 50 mg/kg, time < 23 hr, route oral. Conditions: in vivo.
The nature of series [19]: Volume of distribution in BALB/c mouse at 5 mg/kg, iv administered as 2 mins of infusion by LC-MS/MS method. It is filed as ADME, organism-based. Particulars: in vivo.
In series [20] the test system is Mus musculus. Briefly: Dose normalized AUC (0 to infinity) in BALB/c mouse at 20 mg/kg administered via oral gavage as bolus dose by LC-MS/MS method. It is filed as ADME, organism-based. Conditions: in vivo.
A short description of series [21]: Tmax in BALB/c mouse at 20 mg/kg administered via oral gavage as bolus dose by LC-MS/MS method. The series is classed as ADME, organism-based. Particulars: in vivo.
Series [22] is described as follows: Tmax in Sprague-Dawley rat at 15 mg/kg administered via oral gavage as bolus dose by LC-MS/MS method. Particulars: in vivo. The series is classed as ADME, organism-based.
Series [23] in a line: Tmax in NOD-scid IL-2Rgamma-null mouse model engrafted with Plasmodium falciparum 3D7 infected human erythrocytes at 50 mg/kg administered via oral gavage measured over 23 hrs post first dose by LC-MS/MS method. Particulars: in vivo. It is filed as ADME, organism-based.
Series [24] can be described thus: Cmax in NOD-scid IL-2Rgamma-null mouse model engrafted with Plasmodium falciparum 3D7 infected human erythrocytes at 25 mg/kg administered via oral gavage measured over 23 hrs post first dose by LC-MS/MS method. Conditions: in vivo. On the set-up: dose 25 mg/kg, route oral. It is filed as ADME, organism-based.
The nature of series [25]: Drug metabolism in iv or po dosed BALB/c mouse plasma assessed as metabolism at cyclohexane ring by LC-MS/MS method. The series is classed as ADME, organism-based. Conditions: in vivo.
Series [26] is described as follows: Cmax in Sprague-Dawley rat at 15 mg/kg administered via oral gavage as bolus dose by LC-MS/MS method. It is filed as ADME, organism-based. On the set-up: dose 15 mg/kg, route oral. Particulars: in vivo.
Series [27] in a line: Cmax in NOD-scid IL-2Rgamma-null mouse model engrafted with Plasmodium falciparum 3D7 infected human erythrocytes at 10 mg/kg administered via oral gavage measured over 23 hrs post first dose by LC-MS/MS method. It is filed as ADME, organism-based. Set-up: dose 10 mg/kg, route oral. Particulars: in vivo.
Series [28] has as its system Mus musculus. The experiment in a line: Dose normalized Cmax in NOD-scid IL-2Rgamma-null mouse model engrafted with Plasmodium falciparum 3D7 infected human erythrocytes at 5 mg/kg administered via oral gavage measured over 23 hrs post first dose by LC-MS/MS method. It is filed as ADME, organism-based. Conditions: in vivo.
Series [29] is described as follows: Cmax in Sprague-Dawley rat at 3 mg/kg, iv administered as 2 mins of infusion by LC-MS/MS method. Conditions: in vivo. On the set-up: dose 3 mg/kg, route intravenous. It is filed as ADME, organism-based.
A short description of series [30]: Volume of distribution in Sprague-Dawley rat at 3 mg/kg, iv administered as 2 mins of infusion by LC-MS/MS method. The series is classed as ADME, organism-based. Conditions: in vivo.
Series [31] can be described thus: Kinetic solubility of the compound in HCl at pH 2 after 20 hrs by shake flask method. The series is classed as physicochemical. Particulars: read-out: Kinetic_solubility.
Series [32] can be described thus: AUC (0 to 23 hrs) in NOD-scid IL-2Rgamma-null mouse model engrafted with Plasmodium falciparum 3D7 infected human erythrocytes at 5 mg/kg administered via oral gavage by LC-MS/MS method. It is filed as ADME, organism-based. Set-up: dose 5 mg/kg, time < 23 hr, route oral. Conditions: in vivo.
Series [33] is described as follows: Tmax in NOD-scid IL-2Rgamma-null mouse model engrafted with Plasmodium falciparum 3D7 infected human erythrocytes at 5 mg/kg administered via oral gavage measured over 23 hrs post first dose by LC-MS/MS method. Particulars: in vivo. The series is classed as ADME, organism-based.
The subject of series [34] is Mus musculus. Briefly: Dose normalized AUC (0 to 23 hrs) in NOD-scid IL-2Rgamma-null mouse model engrafted with Plasmodium falciparum 3D7 infected human erythrocytes at 50 mg/kg administered via oral gavage by LC-MS/MS method. It is filed as ADME, organism-based. Particulars: in vivo.
Series [35] is described as follows: Cmax in NOD-scid IL-2Rgamma-null mouse model engrafted with Plasmodium falciparum 3D7 infected human erythrocytes at 5 mg/kg administered via oral gavage measured over 23 hrs post first dose by LC-MS/MS method. It is filed as ADME, organism-based. Set-up: dose 5 mg/kg, route oral. Particulars: in vivo.
Series [36] has as its system Mus musculus. The experiment in a line: Dose normalized AUC (0 to infinity) in BALB/c mouse at 5 mg/kg, iv administered as 2 mins of infusion by LC-MS/MS method. Particulars: in vivo. It is filed as ADME, organism-based.
The nature of series [37]: Oral bioavailability in BALB/c mouse at 20 mg/kg administered via gavage as bolus dose by LC-MS/MS method. The series is classed as ADME, organism-based. Particulars: in vivo.
A short description of series [38]: Cmax in BALB/c mouse at 20 mg/kg administered via oral gavage as bolus dose by LC-MS/MS method. Set-up: dose 20 mg/kg, route oral. It is filed as ADME, organism-based. Conditions: in vivo.
Series [39] can be described thus: Drug metabolism in po dosed BALB/c mouse plasma assessed as oxidation of pyridine ring by LC-MS/MS method. Particulars: in vivo. The series is classed as ADME, organism-based.
Series [40] is described as follows: Drug metabolism in po dosed BALB/c mouse plasma assessed as sulfation of pyridine ring by LC-MS/MS method. Conditions: in vivo. It is filed as ADME, organism-based.
The nature of series [41]: Drug metabolism in po dosed BALB/c mouse plasma assessed as glucuronidation of pyridine ring by LC-MS/MS method. The series is classed as ADME, organism-based. Conditions: in vivo.

Each structure is given as a SMILES string. ≈ marks a conversion by molar mass, not a printed value.

For `FC1(F)CCC(c2nc3cnc(Nc4ccc(C(F)(F)F)cn4)cc3[nH]2)CC1`, the Cmax/dose in series [1] stood at 0.167 µg/mL/mg/kg; in series [7] it was 0.173 µg/mL/mg/kg; in series [12], 0.093 µg/mL/mg/kg; in series [28], 0.086 µg/mL/mg/kg. The AUC(0-t) at 23 h in series [2] was determined as 8670 ng·h/mL; in series [15] it was 46200 ng·h/mL; in series [18], 88000 ng·h/mL; in [32], 4380 ng·h/mL. Moreover, the AUC/dose in series [3] worked out at 342 µM·min; in [5], 0.867 µg·h/mL/mg/kg; in [8] it was 0.876 µg·h/mL/mg/kg; in [10], 286 µM·min; in [13], 2.311 µg·h/mL/mg/kg; in series [20], 2178 µM·min. The AUC/dose in series [34] was 1.759 µg·h/mL/mg/kg; in series [36] it was 1078 µM·min. The Cmax in series [4] is 8650 ng/mL; in [9] it was 5.1 µM; in series [24] it was 3340 ng/mL; in [26] it was 1.2 µM; in [27], 927 ng/mL; in series [29] it was 2.6 µM. In addition, the figures for the Cmax in series [35] and in series [38] were 431 ng/mL and 9.6 µM, respectively. Further, the time to peak (Tmax) in series [6] was 0.5 to 23 h; in series [11] it was 0.5 to 4 h; in series [21], 1 h; in series [22], 3 h; in series [23], 0.25 to 2 h; in series [33] it was 0.5 to 2 h. The figures for the solubility kinetic at 20 h in series [14], in [17] and in [31] were 99 µM (≈ 39.3 µg/mL), 93 µM (≈ 37 µg/mL) and 199 µM (≈ 79.1 µg/mL), respectively. Moreover, the bioavailability in series [16] was 24%; in series [37] it was 51%. Further, the Vd in series [19] stood at 1.5 L/kg; in [30], 3 L/kg. For the same compound, in [25], the Drug metabolism entry is “Metabolite_Notdetected”.

In the case of `FC(F)(F)c1cccc(-c2nc3cnc(Nc4ccccn4)cc3[nH]2)c1`, the Drug metabolism result in series [39], in series [40] and in series [41] was “Metabolite_Detected” throughout. For the same compound, the solubility kinetic at 20 h in series [14] is under 5 µM; in series [31] it was 21 µM (≈ 7.46 µg/mL).
